{"source": "paper PMC5538626", "about": "“Structural and functional analysis of the GABARAP interaction motif (GIM)” (EMBO Reports, 2017)", "target": "T1, LC3B K30R (Homo sapiens, UniProt Q9GZQ8, K30R)", "T1 construct": "modified Ub-leader (ubiquitin fusion leader) (N); made in house; host or cells: E. coli NEB T7 Express", "test": "ITC titration of PLEKHM1-LIR peptide into LC3B K30R mutant", "assay_type": "binding", "description": "The chimeric constructs were expressed as a His‐tag fusion protein in E. coli BL21(DE3) cells. The cells were induced with 0.3 mM IPTG at OD600 0.6 for 16 h at 26°C. The cell pellets were lysed using mechanical sonication in lysis buffer (20 mM Tris–HCl pH 9.0, 100 mM NaCl, 10 mM imidazole, supplemented with 0.1% Triton X‐100). The proteins were purified using Ni‐NTA beads (GE Healthcare) and the His‐tag was cleaved using thrombin (Invitrogen) at room temperature for 16 h. The last step was gel filtration chromatography using a Superdex S200/300 GL column (GE Healthcare). The proteins were concentrated using spin concentrators (Vivaspin). For ITC and NMR studies, the non‐labelled and stable isotopes labelled LC3 and GABARAP proteins were obtained based on the protocols described elsewhere 30, 39. Here, E. coli NEB T7 Express culture transformed with corresponding plasmids were grown till OD600 nm = 1.0 and protein expression was induced with 0.2 mM IPTG. The cultures were incubated at 25°C for 8–12 h before cell harvesting. Isolation and purification procedures were similar to those reported in Ref. 22, 40. Before experiments, all proteins and peptides were equilibrated with a buffer containing 50 mM Na2HPO4, 100 mM NaCl at pH 7.0, and supplied with 5 mM protease inhibitor cocktail.\nThe protocol for preparation of non‐labelled and ^13C,^15N‐labelled PLEKHM1‐LIR peptide was slightly modified to achieve highest yield of the peptide. The 50 ml M9 culture was inoculated with NEB T7 cell transformed with pET39_Ub63‐PLEKHM1‐LIR plasmid and grown overnight at 37°. The collected cells were resuspended in 2 l of either LB or M9 media contained 1.5 g ^15N‐labelled NH4Cl and 3.0 g of ^13C‐labelled glucose. The cultures were grown at 37° till A(600 nm) = 0.9 and supplied with 1 mM of IPTG to induce Ub63‐PLEKHM1‐LIR overexpression (3 h at 37°). After that cells were harvested by centrifugation, re‐suspended in buffer contained 50 mM Tris–HCl pH = 7.9, 200 mM NaCl, 5% glycerol, 0.1 mg/ml DNase A and 4 mM protease inhibitor cocktail. After cell lysis by French press, debris was removed by centrifugation and clear supernatant was applied onto the column contained Ni‐NTA Sepharose equilibrated with the loading buffer (50 mM Tris–HCl pH = 7.9, 250 mM NaCl, 1% glycerol and 20 mM imidazole). Elution was performed with 400 mM imidazole in the same buffer. An aliquot of pure Ub63‐PLEKHM1‐LIR fractions was further purified by gel filtration on Superdex75 26 × 60 column for control ITC and analytical size exclusion chromatography experiments, remaining fusion protein was processed with the TEV‐protease and PLEKHM1‐LIR peptide was purified to 95% purity by reverse Ni‐NTA chromatography and followed gel filtration on Superdex75 26 × 60 column. Peak maximum of peptide was detected at […] (void volume 115 ml). Pure peptide was concentrated in Amicon concentrators with cut‐off of 3 kDa (> 95% retention).\nAll titration experiments were performed at 25°C using a VP‐ITC microcalorimeter (Malvern Instruments Ltd, UK). The ITC data were analysed with the ITC‐Origin 7.0 software with a “one‐site” binding model. The peptides at concentrations of 0.4 mM were titrated into 0.020 mM LC3 and GABARAP proteins in 26 steps. The protein and peptide concentrations were calculated from the UV absorption at 280 nm by NanoDrop spectrophotometer (Thermo Fisher Scientific, DE, USA).", "note": "Ends that are not written are not given here.", "data": [{"sequence": "GAMGPQQEDEWVNVQYPD [PLEKHM1‐LIR WT]", "values": [{"measurement": "-T*DS", "setting": "25°C, pH 7.0, LC3B K30R", "result": -1.08, "unit": "kcal/mol"}, {"measurement": "DG (ΔG)", "setting": "25°C, pH 7.0, LC3B K30R", "result": -7.20, "unit": "kcal/mol"}, {"measurement": "DH (ΔH)", "setting": "25°C, pH 7.0, LC3B K30R", "result": "-6.1 ± 0.2", "unit": "kcal/mol"}, {"measurement": "DS (ΔS)", "setting": "25°C, pH 7.0, LC3B K30R", "result": "+3.61 cal mol-1 K-1"}, {"measurement": "KA", "setting": "25°C, pH 7.0, LC3B K30R", "result": "0.19±0.01 *10^6 M-1"}, {"measurement": "N", "setting": "25°C, pH 7.0, LC3B K30R", "result": "1.11±0.02"}, {"measurement": "increase in favorable binding enthalpy vs wild type LC3B", "setting": "within experimental error", "result": 0.3, "unit": "kcal/mol"}]}]}
